The target of assay [1] is T1, pancreatic lipase (Rattus norvegicus, UniProt P27657).
T1 construct: stimulated to release pancreatic proteins by addition of 10^-5 M carbachol; from tissue; host or cells: pancreatic lobules of fasted Charles River female rats; released pancreatic juice, centrifuged
T1 sequence (P27657 17-465): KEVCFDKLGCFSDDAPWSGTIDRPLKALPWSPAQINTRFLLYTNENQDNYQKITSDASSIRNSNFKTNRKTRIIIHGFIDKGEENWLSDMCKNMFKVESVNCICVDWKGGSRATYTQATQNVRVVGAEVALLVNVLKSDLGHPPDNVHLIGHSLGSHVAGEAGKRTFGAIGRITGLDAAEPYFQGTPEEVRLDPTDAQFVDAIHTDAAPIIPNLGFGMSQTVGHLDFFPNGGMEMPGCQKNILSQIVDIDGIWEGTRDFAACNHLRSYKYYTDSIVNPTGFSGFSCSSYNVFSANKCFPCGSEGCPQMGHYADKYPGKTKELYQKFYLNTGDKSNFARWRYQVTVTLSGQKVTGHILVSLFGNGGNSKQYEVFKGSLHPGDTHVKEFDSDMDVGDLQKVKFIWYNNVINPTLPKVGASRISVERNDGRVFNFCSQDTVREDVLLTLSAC
As to the kind of experiment: In vitro pancreatic lipase screen ([14C]-triolein assay). The conditions noted are these: read-out: Pancreatic Lipase Activity I50. The class given is biochemical. The protocol:
The method for assaying pacreatic lipase in vitro using [^14 C]-triolein was based on the method of Garfinkel and Schotz for lipoprotein lipase, [A. S. Garfinkel and M. C. Schotz (1972). […] Glycerol tri[1-^14 C]oleate (32 mM) was emulsified in 0.2 M Tris-HCl pH 8 containing 0.15 M NaCl, bovine serum albumin (15 mg/ml) and sodium taurocholate (1.4 mM) by sonication for three, one min intervals at 80 watts. Final assay volume was 1.0 ml. The reaction was initiated by the addition of enzyme and was allowed to proceed for 10 min. The reaction was linear for up to 20 min. The liberated free fatty acids were extracted into 0.1 M KOH and quantitated in a liquid scintillation counter using 2,5-bis-2-(5-tertbutylbenzoxazolyl)-tniophene (BBOT) scintillation fluid (Yorktown Research, South Hackensack, N.J.).
Ionophores were added to the above assay as solutions in either 90% ethanol or water, pH 8; 90% ethanol had no effect on the enzyme activity assayed by either method.

The subject of assay [2] is fatty acid synthesis in isolated hepatocytes. As to the kind of experiment: In vitro fatty acid synthesis in isolated hepatocytes. The class given is cell-based, Charles River female rat. The conditions noted are these: for activity at 1 µM / activity at 5 µM / activity at 10 µM / activity at 100 µM / activity at 250 µM / activity at 500 µM / activity at 1000 µM / activity at 2000 µM: Rattus norvegicus, Hepatocyte, 1 h, pH 7.4; for activity at 1 µM: 0.001 mM; for activity at 5 µM: 0.005 mM; for activity at 10 µM: 0.010 mM; for activity at 100 µM: 0.100 mM; for activity at 250 µM: 0.250 mM; for activity at 500 µM: 0.5 mM; for activity at 2000 µM: 2.000 mM. The protocol:
Hepatocytes were prepared from meal-fed Charles River female rats as described previously, [A. C. Sullivan, J. Triscari, J. G. Hamilton and J. A. Ontko (1977). Hypolipidemic activity of (-)-hydroxycitrate, Lipids, 12: 1-9]. Briefly, rats were anesthetized with Nembutal, livers were perfused in situ and hepatocytes were isolated in Krebs-Henseleit bicarbonate buffer, pH 7.4. Incubations with isolated hepatocytes were performed in triplicate at 37° C. Each incubation flask contained in a total volume of 2.1 ml, 10.5 mg cells (dry weight), 1 ml of Krebs-Henseleit buffer, pH 7.4, radioactive substrate (1 μCi [U-^14 C]alanine, 1 mCi^3 H2 O and 1 μmole alanine) and 0.3% glucose. The appropriate concentration of inhibitor was prepared in dimethylsulfoxide and added to the incubation flask. Dimethylsulfoxide had no effect on fatty acid synthesis. ^3 H2 O was used to determine the total rate of fatty acid synthesis independently of carbon precursors of acetyl CoA. [^14 C]alanine was used as an acetyl CoA precursor. Rates of fatty acid synthesis were determined as described previously, [A. C. Sullivan, J. Triscari, J. G. Hamilton and J. A. Ontko (1977). Hypolipidemic activity of (-)-hydroxycitrate, Lipids, 12: 1-9]. Data are expressed as nmoles ^3 H2 O or [^14 C]alanine converted into fatty acids per mg dry weight cells in 60 minutes.

The mark [3] stands for this setting: read-out: Fatty Acid Synthesis 3H2O.
Where [4] appears, read: read-out: Fatty Acid Synthesis [14C]alanine.
The mark [5] stands for this setting: 1.0 mM, read-out: Fatty Acid Synthesis 3H2O.
Setting [6] is: 1.0 mM, read-out: Fatty Acid Synthesis [14C]alanine.

Like-named read-outs stand apart in the source and are kept apart here.

Turning to `CO[C@H]1CC[C@H](O[C@@H]2C[C@@H]([C@@H](C)/C=C(\C)C(=O)[C@H](C)C[C@H](C)C(=O)O)O[C@@]3(CC[C@@](C)([C@H]4CC[C@@H](C)[C@@]5(O[C@@H]([C@H]6O[C@@](O)(CO)[C@H](C)C[C@@H]6C)C[C@@H]5C)O4)O3)[C@@H]2C)O[C@@H]1C` [A-130A (Lenoremycin)], in assay [1], the IC50 is 150 µM.

With `C[C@H](CCC(=O)O)C[C@H](C)C[C@H](C)C(=O)/C=C(\O)[C@H](C)C[C@H](C)C/C=C/[C@@H](C)[C@@H](O)[C@@H](C)[C@@H](O)C[C@@H]1CC[C@@](C)([C@H]2CC[C@@](C)([C@@H](C)O)O2)O1` [Ionomycin], the IC50 in assay [1] turned out to be 960 µM.

As for `CCCCCCCC(=O)Oc1c(C)ccc(CC[C@@H](C)[C@H](O)[C@H](C)C(=O)[C@H](CC)[C@H]2O[C@](CC)([C@H]3CC[C@](O)(CC)[C@H](C)O3)C[C@@H]2C)c1C(=O)O` [Lasalocid Octanoate], in assay [1], the IC50 amounted to 110 µM.

Take `CC[C@@H](C(=O)[C@@H](C)[C@@H](O)[C@H](C)CCc1c(I)cc(C)c(O)c1C(=O)O)[C@H]1O[C@](CC)([C@H]2CC[C@](O)(CC)[C@H](C)O2)C[C@@H]1C` [Iodolasalocid]: in assay [1], the IC50 was 260 µM.

On to `CCC(C(=NOC)C(C)C(O)C(C)CCc1ccc(C)c(O)c1C(=O)O)C1OC(CC)(C2CCC(O)(CC)C(C)O2)CC1C` (stereo not shown) [Lasalocid methoxime], for which the IC50 in assay [1] came out at 200 µM.

Consider Lysocellin, for which the IC50 in assay [1] came out at 800 µM.

Turning to `CCCCCCCCCCCCCCCCCC(=O)Oc1c(C)ccc(CC[C@@H](C)[C@H](O)[C@H](C)C(=O)[C@H](CC)[C@H]2O[C@](CC)([C@H]3CC[C@](O)(CC)[C@H](C)O3)C[C@@H]2C)c1C(=O)O` [Lasalocid Stearate], the IC50 in assay [1] stood at 110 µM.

Regarding `CC[C@@H](C(=O)[C@@H](C)[C@@H](O)[C@H](C)CCc1c([N+](=O)[O-])cc(C)c(O)c1C(=O)O)[C@H]1O[C@](CC)([C@H]2CC[C@](O)(CC)[C@H](C)O2)C[C@@H]1C` [Nitrolasalocid], the IC50 in assay [1] was 1320 µM.

As to `CCCCCCC(=O)Oc1c(C)ccc(CC[C@@H](C)[C@H](O)[C@H](C)C(=O)[C@H](CC)[C@H]2O[C@](CC)([C@H]3CC[C@](O)(CC)[C@H](C)O3)C[C@@H]2C)c1C(=O)O` [Lasalocid Heptanoate], in assay [1], the IC50 was 220 µM.

For the molecule `CC[C@@H](C(=O)[C@@H](C)[C@@H](O)[C@H](C)CCc1c(Cl)cc(C)c(O)c1C(=O)O)[C@H]1O[C@](CC)([C@H]2CC[C@](O)(CC)[C@H](C)O2)C[C@@H]1C` [Chlorolasalocid], in assay [1], the IC50 is 7000 µM.

Consider `CC[C@@H](C(=O)[C@@H](C)[C@@H](O)[C@H](C)CCc1ccc(C)c(OC(C)=O)c1C(=O)O)[C@H]1O[C@](CC)([C@H]2CC[C@](O)(CC)[C@H](C)O2)C[C@@H]1C` [Lasalocid Acetate], for which the IC50 in assay [1] amounted to 120 µM.

`CC[C@@H](C(=O)[C@@H](C)[C@@H](O)[C@H](C)CCc1c([N+](=O)[O-])cc(C)c(O)c1[N+](=O)[O-])[C@H]1O[C@](CC)([C@H]2CC[C@](O)(CC)[C@H](C)O2)C[C@@H]1C` [Dinitrodescarboxylasalocid,Sodium]: in assay [2] (setting [3]), the activity at 1 µM is 113%, the activity at 5 µM was found to be 116%, the activity at 10 µM was determined as 160% and the activity at 100 µM is 2%. Further, in assay [2] (setting [3]), the activity at 250 µM amounted to 3%, the activity at 500 µM was 3% and the activity at 2000 µM was found to be 7%. Further, in assay [2] (setting [4]), the activity at 1 µM is 102%, the activity at 5 µM came to 117%, the activity at 10 µM is 169% and the activity at 100 µM turned out to be 0%. Moreover, in assay [2] (setting [4]), the activity at 250 µM worked out at 0%, the activity at 500 µM came out at 0% and the activity at 2000 µM was 0%. For the same molecule, the activity at 1000 µM in assay [2] (setting [5]) came to 4%. The activity at 1000 µM in assay [2] (setting [6]) stood at 0%.

Turning to `CO[C@@H]1C[C@@H](C[C@H]2CC[C@H](C)[C@H]([C@@H](C)C(=O)O)O2)O[C@]2(O[C@](C)([C@H]3CC[C@@](C)([C@@H]4O[C@@H]([C@H]5O[C@@](O)(CO)[C@H](C)C[C@@H]5C)C[C@@H]4C)O3)C[C@H]2C)[C@@H]1C` [Nigericin], the IC50 in assay [1] was 2500 µM.

`CC[C@@H](C(=O)[C@@H](C)[C@@H](O)[C@H](C)CCc1ccc(C)c(OC(=O)c2ccc(Br)cc2)c1C(=O)O)[C@H]1O[C@](CC)([C@H]2CC[C@](O)(CC)[C@H](C)O2)C[C@@H]1C` [Lasalocid 4-bromo benzoate]: the IC50 in assay [1] came to 130 µM.

Consider `CC[C@@H](C(=O)[C@@H](C)[C@@H](O)[C@H](C)CCc1ccc(C)c(O)c1C(=O)O)[C@H]1O[C@](CC)([C@H]2CC[C@](O)(CC)[C@H](C)O2)C[C@@H]1C` [Lasalocid,Sodium], for which, in assay [2] (setting [3]), the activity at 1 µM turned out to be 97%, the activity at 5 µM is 74%, the activity at 10 µM came out at 61% and the activity at 100 µM is 4%. Besides, in assay [2] (setting [3]), the activity at 250 µM turned out to be 6% and the activity at 500 µM was 7%. Also, in assay [2] (setting [4]), the activity at 1 µM amounted to 88%, the activity at 5 µM was 66%, the activity at 10 µM came out at 66% and the activity at 100 µM was 0%. In assay [2] (setting [4]), the activity at 250 µM is 1% and the activity at 500 µM stood at 3%. Also, in assay [2] (setting [5]), the activity at 1000 µM stood at 11%. For the same molecule, the activity at 1000 µM in assay [2] (setting [6]) worked out at 0%.

For `CCC(C(=O)O)C1CCC(C)C(C(C)C(O)C(C)C(=O)C(CC)C2OC3(C=CCC4(CCC(C)(C5CCC(O)(CC)C(C)O5)O4)O3)C(C)CC2C)O1` (stereo not drawn) [Deoxy-(0-8)-epi-17-salinomycin], in assay [1], the IC50 is 600 µM.

Consider `CNc1ccc2oc(C[C@H]3O[C@@]4(CC[C@H]3C)O[C@H]([C@H](C)C(=O)c3ccc[nH]3)[C@H](C)C[C@H]4C)nc2c1C(=O)O` [Calcimycin], for which, in assay [2] (1.0 mM), the “Fatty Acid Synthesis 3H2O” value was 48 % of control and the “Fatty Acid Synthesis [14C]alanine” value is 0 % of control.

Turning to `CCC(C(=O)C(C)C(O)C(C)CCc1ccc(C)c(O)c1C(=O)O)C1OC(CC)(C2CCC(CC)(C(C)O)O2)CC1C` (stereo not shown) [Isolasalocid A], the IC50 in assay [1] turned out to be 390 µM.

For the molecule `CC[C@@H](C(=O)[C@@H](C)[C@@H](O)[C@H](C)CCc1ccc(C)c(O)c1C(=O)O)[C@H]1O[C@](CC)([C@H]2CC[C@](O)(CC)[C@H](C)O2)C[C@@H]1C` [Lasalocid], in assay [1], the IC50 was 100 µM.

As to `CCCCCC(=O)Oc1c(C)ccc(CC[C@@H](C)[C@H](O)[C@H](C)C(=O)[C@H](CC)[C@H]2O[C@](CC)([C@H]3CC[C@](O)(CC)[C@H](C)O3)C[C@@H]2C)c1C(=O)O` [Lasalocid Hexanoate], the IC50 in assay [1] was 200 µM.

Values taken from patent US4218443A, “Polyether ionophores as antiobesity and hypotriglyceridemic agents” (Hoffmann-La Roche Inc., priority 1979, dated 1980).
